Here are results for one molecule from patent publication US20080318970A1, “Treatment of Infectious Diseases” (priority 2004, published 2008).

Data set [1] in a line: Pharmacokinetic studies of Trans-clopenthixol with mice, concentrations in sera. The data set is classed as in vivo, NMRI mice. The settings on record: single dose of 0.3 mg per mouse, subcutaneous, 1-24 h (FIG. 4). The protocol: Pharmacokinetic studies were done with NMRI mice. Concentrations in sera were determined after the administration of a single dose of 0.3 mg per mouse. The drug was administered by subcutaneous injection in the neck region in a volume of 0.2 ml per dose. At 1, 2, 4, 6, and 24 hours after the injection blood samples were obtained from the mice in groups of three. After collection, the blood was centrifuged and the serum was stored at −80° C. until it was analyzed by High Pressure Liquid Chromatography.

Data set [2] concerns E. coli 331ME. The experiment in a line: Checkerboard combination study (FIC index). The data set is classed as cell-based. The settings on record: MDR isolate. The procedure: E. coli 331 ME. In vivo-selected multidrug resistant clinical isolates of E. coli. Strains were isolated from a patient with severe cystitis/urosepsis. Resistant to tetracycline, beta-lactams, fluoroquinolones, chloramphenicol and aminoglycosides.
(§1) The synergistic effect was studied by checkerboard combination studies exposing cells to 0-64 μg/ml anti-infective agent in the absence or presence of trans-flupenthixol, cis-flupenthixol or trans-clopenthixol. Each experiment was repeated in tripleduplicate. MIC values represent the mean values of two separate experiments,
(§2) A log phase culture of bacteria was diluted with fresh pre-warmed medium and adjusted to a defined OD at 600 nm in order to give a final concentration of 1×10^4 bacteria/ml medium in each well. Each chemosensitising compound was added to the bacterial culture in the wells in two-fold dilutions in order to give final concentrations ranging from 0 to 8 μg/ml. Anti-infective agent was added to the bacterial culture in the wells in two-fold dilutions in order to give final concentrations ranging from 0 to 64 μg/ml Trays were incubated at 37° C. for 16 h. Wells were assessed visually for growth. The Fractional Inhibitory Concentration (FIC) was calculated for each anti-infective agent alone and in combination with trans-flupenthixol, cis-flupenthixol or trans-clopenthixol. The following formulae were used to calculate the FIC index:
(§3) FIC=FICchemosensitising compound+FICanti-infective agent
(§4) FICchemosensitising compound=(MICchemosensitising compound+anti-infective agent)/(MICchemosensitising compound)
(§5) FICanti-infective agent=(MICanti-infective agent+chemosensitising compound/(MICanti-Infective agent)
(§6) Synergy was defined as a FIC index of <0.5.

Data set [3] relates to E. coli, LN 3164. The data set is described as follows: Effect of chemosensitising compounds on DR (DR ratio) with ciprofloxacin, microtiter assay. Format: cell-based. Conditions: MIC ciprofloxacin alone / MIC ciprofloxacin + chemosensitising compound at ¼ of its MIC; E. coli LN 3164. The procedure:
The effects of the chemosensitising compounds on DR were studied by the microtiter assay described above by exposing cells to 0-64 μg/ml anti-infective drug in the absence or presence of chemosensitising compound. Each experiment was repeated in tripleduplicate. MIC values represent the mean values of two separate experiments.
A log phase culture of bacteria was diluted with fresh pre-warmed medium and adjusted to a defined OD at 600 nm in order to give a final concentration of 1×10^4 bacteria/ml medium in each well. […] Anti-infective agent was added to the bacterial culture in the wells in two-fold dilutions in order to give final concentrations ranging from 0 to 64 μg/ml. Trays were incubated at 37° C. for 16 h. The DR ratio was defined as the ratio between the MIC value for anti-infective agent alone divided by the MIC for the anti-infective agent in the presence of the chemosensitising compound. This ratio represents the increase in apparent potency of the anti-infective agent caused by the chemosensitising compound, and may be expressed as
DR ratio=(MICanti-infective agent)/(MICanti-infective agent+chemosensitising compound)

Data set [4] has as its system E. coli LN 3164. The data set is described as follows: Checkerboard combination study (FIC index). The data set is classed as cell-based. Conditions: MDR isolate. The protocol: E. coli, LN 3164. Acr AB-ToIC MDR in vitro-selected mutant. Resistant to tetracycline, beta-lactams, fluoroquinolones, chloramphenicol and aminoglycosides.
as §1, §2, §3, §4, §5, §6

Data set [5] relates to Fluconazole Resistant Candida albicans. The data set is described as follows: Checkerboard combination study on fungals, broth microdilution (NCCLS M27-A). The settings on record: for FIC index: fluconazole with trans-clopenthixol. The data set is classed as cell-based. The procedure: The synergistic effect of Trans-clopenthixol was studied by checkerboard combination studies exposing cells to 0-256 μg/ml anti-infective agent in the absence or presence of trans-clopenthixol (0 to 8 μg/ml in two-fold dilutions). Each experiment was repeated in tripleduplicate. MIC values represent the mean values of two separate experiments.
Clinical Isolate of a Fluconazole Resistant Candida albicans from a Patient with candidemia.
The isolates were subcultured for 24 h on Sabouraud glucose agar before susceptibility testing.
Broth microdilution tests were performed according to NCCLS document M27-A (Ref: National Committee for Clinical Laboratory Standards. (1997). Reference Method for Broth Dilution Antifungal Susceptibility Testing of Yeasts: Approved Standard M27-A. NCCLS, Wayne, Pa.)
Microtitre plates were read spectrophotometrically at 530 nm, after mixing the wells by pipetting to resuspend yeast sediments.
The Fractional Inhibitory Concentration (FIC) was calculated for the anti-infective agent alone and in combination with trans-clopenthixol. The following formulae were used to calculate the FIC index:
as §3, §4
FICanti-infective agent=(MICanti-infective agent+chemosensitising compound/(MICanti-infective agent)
as §6
In general terms: In broth dilution the organism is exposed to a series of concentrations in liquid medium.

The test system of data set [6] is E. faecalis F84. The experiment in a line: Checkerboard combination study (FIC index). Format: cell-based, Enterococcus faecalis. Conditions: MDR isolate. The protocol: Enterococcus faecalis, F84. A multidrug resistant clinical isolate.
as §1
as §2, with “Each chemosensitising compound was added to the bacterial culture in the wells in two-fold dilutions in order to give final concentrations ranging from 0 to 8 μg/ml.” left out
as §3, §4, §5, §6

The mark [7] stands for this setting: anti-infective agent Ciprofloxacin.
Setting [8] is: anti-infective agent Gentamicin.
The mark [9] stands for this setting: anti-infective agent Piperacillin.

On to `OCCN1CCN(CC/C=C2\c3ccccc3Sc3ccc(Cl)cc32)CC1` [trans-clopenthixol], for which, in data set [1], the Serum values entry was “less than 300 ng/ml”. The FIC index in data set [2] (setting [7]) amounted to 0.003; in data set [2] (setting [8]), 0.008; in data set [2] (setting [9]), 0.063; in data set [4] (setting [7]), 0.063; in data set [4] (setting [8]) it was 0.063; in data set [4] (setting [9]), 0.063. For the same molecule, the FIC index in data set [5] is on record as under 0.5; in data set [5] (listed as Trans-clopenthixol), 0.16; in data set [6] (anti-infective agent Dicloxacillin), 0.03; in data set [6] (anti-infective agent Vanomycin), 0.06. The DR ratio in data set [3] is recorded as 128. The MIC in data set [5] (agent alone) turned out to be 32 µg/mL. Also, in data set [5] (in combination with an anti-fungal agent), the effective concentrations is at most 3 µg/mL.

By MIC is commonly meant the least concentration at which growth counts as inhibited.
